One assay concerns the target Genome polyprotein (dengue virus type 2, UniProt P29990). The assay can be described thus: flavivirus cap methylation enzyme inhibition – biochemical, confirmation dose response, primary screen (AID 588689). In kind it is functional.
Assay [1] has as its target Type-1 angiotensin II receptor (Homo sapiens, UniProt P30556). Description: antagonism of angiotensin II type 1 receptor – cell-based, uHTS hits, selectivity assay for APJ receptor antagonist project, dose response (AID 463214).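 Note: antagonist potency against angiotensin II stimulated AT1 response.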 In kind it is functional.
Another assay concerns the target Beta-galactosidase (Escherichia coli, UniProt Q8VNN2). Description: PubChem AID 485352. In kind it is functional.
For assay [2], the target named is T1, Oxysterols receptor LXR-beta (Homo sapiens, UniProt P55055).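 Note: agonist activity at LXR measured by a cell-based luminescence readout across a dose range, run as a counterscreen for daf-12 agonists; HEK293 cells with Gal4-LXR fusion and GAL4-driven luciferase reporter; potency for activation of Gal4-LXR reporter so compounds are agonists.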
T1 sequence (P55055 whole entry): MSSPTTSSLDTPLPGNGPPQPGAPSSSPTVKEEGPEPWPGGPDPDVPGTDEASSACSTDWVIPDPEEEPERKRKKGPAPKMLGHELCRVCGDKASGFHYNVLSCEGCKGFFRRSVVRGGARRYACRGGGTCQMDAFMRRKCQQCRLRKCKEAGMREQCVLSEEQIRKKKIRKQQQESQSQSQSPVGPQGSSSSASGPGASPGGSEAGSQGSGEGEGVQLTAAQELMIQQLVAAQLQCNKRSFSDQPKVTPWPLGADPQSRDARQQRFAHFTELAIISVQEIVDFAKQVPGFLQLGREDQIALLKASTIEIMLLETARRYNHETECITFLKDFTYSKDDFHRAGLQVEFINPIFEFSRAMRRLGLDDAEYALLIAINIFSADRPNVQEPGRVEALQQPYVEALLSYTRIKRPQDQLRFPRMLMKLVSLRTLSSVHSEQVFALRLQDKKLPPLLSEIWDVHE
Type of assay: functional, cell-based.

For the next assay, the system named is H4. Description: Luminescence Cell-Based Dose Response HTS to Identify Activators of 5'UTR Stem-Loop Driven Prion Protein mRNA Translation in H4 Neuroglioblastoma Cells. [Related pubchem assays: 1829 (Project Summary), 1814 (Primary HTS)]. Type of assay: functional. The following applies: Homo sapiens.
Assay [3] in a line: cells. In kind it is functional, cell-based.
The target of assay [4] is T2, Nuclear receptor subfamily 0 group B member 1 (Homo sapiens, UniProt P51843).
T2 sequence (P51843 whole entry): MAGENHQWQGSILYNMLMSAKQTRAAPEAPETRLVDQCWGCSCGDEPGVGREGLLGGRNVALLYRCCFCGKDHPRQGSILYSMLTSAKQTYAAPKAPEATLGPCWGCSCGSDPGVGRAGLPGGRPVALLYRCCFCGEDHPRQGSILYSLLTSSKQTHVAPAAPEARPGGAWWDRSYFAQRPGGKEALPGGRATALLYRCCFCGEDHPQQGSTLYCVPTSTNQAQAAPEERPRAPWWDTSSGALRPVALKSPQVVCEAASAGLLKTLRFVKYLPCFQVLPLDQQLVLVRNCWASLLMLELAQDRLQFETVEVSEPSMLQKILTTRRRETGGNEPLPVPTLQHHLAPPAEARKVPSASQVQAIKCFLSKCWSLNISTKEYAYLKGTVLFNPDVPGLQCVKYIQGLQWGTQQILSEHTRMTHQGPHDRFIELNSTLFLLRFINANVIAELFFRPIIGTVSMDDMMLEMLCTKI
Description: Luminescence-based cell-based high throughput dose response assay for inhibitors of the orphan nuclear receptor subfamily 0, group B, member 1 (DAX1; NR0B1). [Related pubchem assays (depositor defined):AID504766, AID504790]. In kind it is functional.

Assay [5] is described as follows: cells. In kind it is functional, cell-based. The source holds these as a separate data set.
Assay [6] in a line: Luminescence Cell-Based Dose Confirmation HTS to Identify Activators of 5'UTR Stem-Loop Driven Alpha-Synuclein mRNA Translation in H4 Neuroglioblastoma Cells. [Related pubchem assays: 1829 (Project Summary), 1814 (Primary HTS)]. Type of assay: functional.
For the next assay, the system named is HEK293. The assay can be described thus: cells. In kind it is functional, cell-based. The following applies: Homo sapiens.
Assay [7] can be described thus: Luminescence Cell-Based Dose Response HTS to Identify Activators of Luciferase Translation or Activity in H4 […] Cells. [Related pubchem assays: 1829 (Project Summary), 1814 (Primary HTS)]. Type of assay: functional.
For assay [8], the target named is Beta-2 adrenergic receptor (Homo sapiens, UniProt P07550). The assay can be described thus: ADRB2 activation measured by internalization – cell-based, FAP fluorogen, flow cytometry, cherry pick 1, dose response (AID 588763). Type of assay: functional.
Sequence of Beta-2 adrenergic receptor (P07550 whole entry): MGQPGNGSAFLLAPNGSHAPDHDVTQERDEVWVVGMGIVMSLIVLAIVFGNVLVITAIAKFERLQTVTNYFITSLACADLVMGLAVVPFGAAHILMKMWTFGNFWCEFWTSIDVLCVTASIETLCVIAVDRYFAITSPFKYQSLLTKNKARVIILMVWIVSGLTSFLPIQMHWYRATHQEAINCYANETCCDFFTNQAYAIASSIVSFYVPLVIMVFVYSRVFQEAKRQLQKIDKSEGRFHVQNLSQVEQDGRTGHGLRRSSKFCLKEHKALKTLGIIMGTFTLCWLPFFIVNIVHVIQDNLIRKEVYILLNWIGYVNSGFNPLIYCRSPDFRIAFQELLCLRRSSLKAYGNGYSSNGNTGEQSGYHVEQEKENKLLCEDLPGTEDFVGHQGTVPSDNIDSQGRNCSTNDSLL
Assay [9] in a line: viability of uninfected HEp-2 cells – cell-based, HTS, cytotoxicity control for RSV inhibitor project, dose response (AID 2410). In kind it is functional. The following applies: human respiratory syncytial virus.
The target in assay [10] is T3, Sentrin-specific protease 8 (Homo sapiens, UniProt Q96LD8).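 Note: luminescence read-out of SENP8 inhibition, dose-response confirmation following an ultra-high-throughput screen.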
T3 sequence (Q96LD8 whole entry): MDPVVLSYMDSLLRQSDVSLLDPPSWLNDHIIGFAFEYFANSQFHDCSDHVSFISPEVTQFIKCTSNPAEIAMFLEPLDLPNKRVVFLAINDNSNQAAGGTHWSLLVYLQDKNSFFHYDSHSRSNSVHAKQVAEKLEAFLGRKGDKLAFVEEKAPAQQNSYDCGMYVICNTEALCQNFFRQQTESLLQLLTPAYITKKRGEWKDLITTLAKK
Type of assay: functional.

The target of the next assay is T4, Caspase-3 (Homo sapiens, UniProt P42574).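 Note: Dose-response selectivity test against caspase-3 for candidate inhibitors of sentrin-specific proteases (SENPs).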
T4 sequence (P42574 whole entry): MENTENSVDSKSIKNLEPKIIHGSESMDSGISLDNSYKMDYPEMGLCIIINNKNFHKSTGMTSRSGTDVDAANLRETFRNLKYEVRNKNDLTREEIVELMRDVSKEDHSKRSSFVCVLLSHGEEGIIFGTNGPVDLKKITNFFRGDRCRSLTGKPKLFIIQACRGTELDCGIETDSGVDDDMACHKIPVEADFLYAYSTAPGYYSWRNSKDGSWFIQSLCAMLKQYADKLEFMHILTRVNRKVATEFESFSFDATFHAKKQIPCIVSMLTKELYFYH
Type of assay: functional.

The target of assay [11] is T5, Sentrin-specific protease 7 (Homo sapiens, UniProt Q9BQF6).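 Note: Luminescence-based dose-response confirmation of ultra-high-throughput screening hits, measuring inhibition of SENP7.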
T5 sequence (Q9BQF6 whole entry): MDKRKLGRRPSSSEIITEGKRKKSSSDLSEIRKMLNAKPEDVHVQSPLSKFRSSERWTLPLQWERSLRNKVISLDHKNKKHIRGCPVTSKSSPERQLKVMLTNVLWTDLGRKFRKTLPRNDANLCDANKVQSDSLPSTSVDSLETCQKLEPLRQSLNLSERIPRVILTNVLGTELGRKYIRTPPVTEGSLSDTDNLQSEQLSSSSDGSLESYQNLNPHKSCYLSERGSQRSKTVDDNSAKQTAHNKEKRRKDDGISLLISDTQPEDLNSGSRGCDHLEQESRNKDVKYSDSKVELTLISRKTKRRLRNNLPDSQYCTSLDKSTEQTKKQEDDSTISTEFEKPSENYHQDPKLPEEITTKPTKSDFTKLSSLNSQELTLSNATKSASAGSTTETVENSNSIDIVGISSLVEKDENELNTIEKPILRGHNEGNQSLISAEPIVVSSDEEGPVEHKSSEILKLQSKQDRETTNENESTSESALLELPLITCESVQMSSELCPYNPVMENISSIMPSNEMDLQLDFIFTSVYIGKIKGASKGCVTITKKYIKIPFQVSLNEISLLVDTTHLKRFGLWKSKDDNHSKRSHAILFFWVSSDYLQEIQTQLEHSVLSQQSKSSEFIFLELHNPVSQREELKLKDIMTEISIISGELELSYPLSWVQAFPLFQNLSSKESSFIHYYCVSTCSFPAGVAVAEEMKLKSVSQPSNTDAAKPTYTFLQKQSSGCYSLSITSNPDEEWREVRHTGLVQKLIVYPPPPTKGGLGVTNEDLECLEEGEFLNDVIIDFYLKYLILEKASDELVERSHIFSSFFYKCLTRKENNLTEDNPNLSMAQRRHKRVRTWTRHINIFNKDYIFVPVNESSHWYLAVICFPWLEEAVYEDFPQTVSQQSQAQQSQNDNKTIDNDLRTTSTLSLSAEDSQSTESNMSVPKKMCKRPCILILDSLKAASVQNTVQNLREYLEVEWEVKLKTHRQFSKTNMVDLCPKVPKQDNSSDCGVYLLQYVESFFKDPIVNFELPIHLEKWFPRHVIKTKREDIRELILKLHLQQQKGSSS
In kind it is functional.

The target in assay [12] is T6, Sentrin-specific protease 6 (Homo sapiens, UniProt Q9GZR1).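 Note: Luminescence-based dose-response confirmatory assay of SENP6 inhibition, following up an ultra-high-throughput screen.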
T6 sequence (Q9GZR1 whole entry): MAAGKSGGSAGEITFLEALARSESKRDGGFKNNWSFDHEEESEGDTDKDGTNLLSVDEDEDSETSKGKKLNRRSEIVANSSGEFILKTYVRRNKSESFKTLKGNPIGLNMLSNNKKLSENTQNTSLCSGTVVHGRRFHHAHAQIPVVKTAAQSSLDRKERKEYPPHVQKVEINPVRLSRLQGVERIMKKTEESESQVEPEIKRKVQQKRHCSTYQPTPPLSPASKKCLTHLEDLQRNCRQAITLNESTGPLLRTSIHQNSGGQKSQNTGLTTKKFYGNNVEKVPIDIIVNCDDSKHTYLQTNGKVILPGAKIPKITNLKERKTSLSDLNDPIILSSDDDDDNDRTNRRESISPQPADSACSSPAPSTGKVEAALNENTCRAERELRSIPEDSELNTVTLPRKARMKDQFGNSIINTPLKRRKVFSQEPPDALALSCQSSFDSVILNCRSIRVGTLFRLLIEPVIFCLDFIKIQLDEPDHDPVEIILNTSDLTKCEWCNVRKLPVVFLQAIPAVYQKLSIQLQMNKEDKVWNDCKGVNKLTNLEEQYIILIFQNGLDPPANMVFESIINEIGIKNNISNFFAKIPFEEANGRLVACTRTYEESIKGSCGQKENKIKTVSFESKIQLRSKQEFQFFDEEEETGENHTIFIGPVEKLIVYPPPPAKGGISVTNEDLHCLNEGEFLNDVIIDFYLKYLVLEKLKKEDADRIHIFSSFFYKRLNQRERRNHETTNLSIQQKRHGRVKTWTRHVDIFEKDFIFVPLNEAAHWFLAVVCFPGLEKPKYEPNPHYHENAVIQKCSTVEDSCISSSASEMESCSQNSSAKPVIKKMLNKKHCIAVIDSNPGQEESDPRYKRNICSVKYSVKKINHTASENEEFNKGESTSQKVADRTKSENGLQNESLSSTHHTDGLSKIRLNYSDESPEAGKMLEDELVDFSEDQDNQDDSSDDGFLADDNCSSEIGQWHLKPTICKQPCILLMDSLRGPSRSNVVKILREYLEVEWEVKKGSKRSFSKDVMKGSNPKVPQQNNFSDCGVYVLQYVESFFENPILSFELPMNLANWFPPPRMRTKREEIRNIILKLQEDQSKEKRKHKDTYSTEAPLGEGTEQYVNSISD
Type of assay: functional.

The test system of the next assay is HeLa. The assay can be described thus: ATP-based viability loss in HeLa cells – cell-based, CellTiter-Glo luminescence, cherry-pick samples, cytotoxicity control for MITF activator project, dose response (AID 540259). In kind it is functional. The following applies: Homo sapiens.
Assay [13] addresses T7, Heat shock factor protein 1 (Mus musculus, UniProt P38532).
T7 sequence (P38532 whole entry): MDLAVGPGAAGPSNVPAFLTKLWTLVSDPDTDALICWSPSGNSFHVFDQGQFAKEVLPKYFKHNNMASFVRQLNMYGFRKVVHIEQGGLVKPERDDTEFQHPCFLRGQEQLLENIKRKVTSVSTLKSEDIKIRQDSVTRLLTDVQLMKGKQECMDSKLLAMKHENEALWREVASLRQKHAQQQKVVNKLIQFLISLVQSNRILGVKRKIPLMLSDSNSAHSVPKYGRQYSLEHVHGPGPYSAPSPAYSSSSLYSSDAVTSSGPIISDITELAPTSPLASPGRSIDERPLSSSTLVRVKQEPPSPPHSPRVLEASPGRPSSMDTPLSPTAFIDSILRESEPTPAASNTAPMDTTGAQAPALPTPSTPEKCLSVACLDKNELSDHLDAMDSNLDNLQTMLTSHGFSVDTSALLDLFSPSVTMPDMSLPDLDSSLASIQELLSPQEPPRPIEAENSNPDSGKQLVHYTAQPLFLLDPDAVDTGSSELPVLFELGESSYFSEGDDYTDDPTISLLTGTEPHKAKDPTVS
Description: decrease of HSF1-responsive luciferase luminescence – cell-based, NIH3T3, dose retest, confirmation (AID 2382).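 Note: NIH3T3 fibroblasts with HSF1-driven luciferase reporter stressed by proteasome inhibitor MG132; luminescence from HSF1-driven luciferase expression after 8 hours of MG132 stress.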 In kind it is functional.

A further assay has as its target Cysteine protease ATG4B (Homo sapiens, UniProt Q9Y4P1). Type of assay: functional.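 Note: Fluorescence-based dose-response confirmation assay measuring inhibition of ATG4B activity.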
The target of a further assay is Phospholipase A2 (Homo sapiens, UniProt P04054). In kind it is functional.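 Note: confirmatory dose-response counterscreen on phospholipase A2, testing hits that came from an ultra-high-throughput screen for ATG4B inhibitors.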
Sequence of Phospholipase A2 (P04054 whole entry): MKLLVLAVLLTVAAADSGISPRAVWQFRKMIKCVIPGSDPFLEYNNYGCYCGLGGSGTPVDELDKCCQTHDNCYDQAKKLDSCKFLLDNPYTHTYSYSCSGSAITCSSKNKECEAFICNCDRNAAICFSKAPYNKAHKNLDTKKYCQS

Each structure is given as a SMILES string. The source made the active and inactive calls.

We go through eight compounds from ChEMBL document CHEMBL1201862, “PubChem BioAssay data set” (2004).

Sequence of Type-1 angiotensin II receptor (P30556 whole entry): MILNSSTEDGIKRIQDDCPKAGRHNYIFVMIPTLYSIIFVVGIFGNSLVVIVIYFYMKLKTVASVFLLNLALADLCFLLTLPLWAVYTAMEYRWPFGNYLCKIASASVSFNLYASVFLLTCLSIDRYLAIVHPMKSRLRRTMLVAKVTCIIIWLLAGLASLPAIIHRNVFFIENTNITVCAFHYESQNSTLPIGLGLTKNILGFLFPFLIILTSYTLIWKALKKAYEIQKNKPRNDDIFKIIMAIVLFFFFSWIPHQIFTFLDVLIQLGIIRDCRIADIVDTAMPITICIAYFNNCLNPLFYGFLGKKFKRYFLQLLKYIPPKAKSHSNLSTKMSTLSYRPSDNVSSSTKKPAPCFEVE
Sequence of Beta-galactosidase (Q8VNN2 whole entry, the tested form may be a part): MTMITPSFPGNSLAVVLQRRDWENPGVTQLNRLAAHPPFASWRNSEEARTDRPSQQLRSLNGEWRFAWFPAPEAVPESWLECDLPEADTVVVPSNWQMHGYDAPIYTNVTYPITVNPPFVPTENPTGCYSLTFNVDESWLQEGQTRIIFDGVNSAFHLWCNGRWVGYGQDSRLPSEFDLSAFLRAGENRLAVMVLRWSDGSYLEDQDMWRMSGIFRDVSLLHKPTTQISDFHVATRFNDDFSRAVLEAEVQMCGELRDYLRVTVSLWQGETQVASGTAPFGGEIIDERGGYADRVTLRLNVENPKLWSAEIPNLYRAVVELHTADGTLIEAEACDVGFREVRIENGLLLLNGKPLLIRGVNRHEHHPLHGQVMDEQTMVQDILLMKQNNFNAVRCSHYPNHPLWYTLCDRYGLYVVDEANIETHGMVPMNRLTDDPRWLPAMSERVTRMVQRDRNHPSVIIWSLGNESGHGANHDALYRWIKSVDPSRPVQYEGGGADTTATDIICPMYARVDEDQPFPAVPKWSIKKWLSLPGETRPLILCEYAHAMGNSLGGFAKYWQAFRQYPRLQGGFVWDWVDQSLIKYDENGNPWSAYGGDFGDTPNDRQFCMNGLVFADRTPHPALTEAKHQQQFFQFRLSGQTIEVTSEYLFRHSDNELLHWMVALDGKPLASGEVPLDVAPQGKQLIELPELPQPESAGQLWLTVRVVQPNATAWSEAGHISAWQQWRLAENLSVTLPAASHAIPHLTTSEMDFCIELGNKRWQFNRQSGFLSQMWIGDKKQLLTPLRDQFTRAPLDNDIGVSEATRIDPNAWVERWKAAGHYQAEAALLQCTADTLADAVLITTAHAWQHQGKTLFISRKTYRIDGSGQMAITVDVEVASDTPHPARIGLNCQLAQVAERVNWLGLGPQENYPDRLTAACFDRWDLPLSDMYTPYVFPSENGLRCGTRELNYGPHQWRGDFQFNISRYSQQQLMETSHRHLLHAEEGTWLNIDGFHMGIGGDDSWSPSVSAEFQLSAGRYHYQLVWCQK
Sequence of Genome polyprotein (P29990 2492-3391 limits assumed): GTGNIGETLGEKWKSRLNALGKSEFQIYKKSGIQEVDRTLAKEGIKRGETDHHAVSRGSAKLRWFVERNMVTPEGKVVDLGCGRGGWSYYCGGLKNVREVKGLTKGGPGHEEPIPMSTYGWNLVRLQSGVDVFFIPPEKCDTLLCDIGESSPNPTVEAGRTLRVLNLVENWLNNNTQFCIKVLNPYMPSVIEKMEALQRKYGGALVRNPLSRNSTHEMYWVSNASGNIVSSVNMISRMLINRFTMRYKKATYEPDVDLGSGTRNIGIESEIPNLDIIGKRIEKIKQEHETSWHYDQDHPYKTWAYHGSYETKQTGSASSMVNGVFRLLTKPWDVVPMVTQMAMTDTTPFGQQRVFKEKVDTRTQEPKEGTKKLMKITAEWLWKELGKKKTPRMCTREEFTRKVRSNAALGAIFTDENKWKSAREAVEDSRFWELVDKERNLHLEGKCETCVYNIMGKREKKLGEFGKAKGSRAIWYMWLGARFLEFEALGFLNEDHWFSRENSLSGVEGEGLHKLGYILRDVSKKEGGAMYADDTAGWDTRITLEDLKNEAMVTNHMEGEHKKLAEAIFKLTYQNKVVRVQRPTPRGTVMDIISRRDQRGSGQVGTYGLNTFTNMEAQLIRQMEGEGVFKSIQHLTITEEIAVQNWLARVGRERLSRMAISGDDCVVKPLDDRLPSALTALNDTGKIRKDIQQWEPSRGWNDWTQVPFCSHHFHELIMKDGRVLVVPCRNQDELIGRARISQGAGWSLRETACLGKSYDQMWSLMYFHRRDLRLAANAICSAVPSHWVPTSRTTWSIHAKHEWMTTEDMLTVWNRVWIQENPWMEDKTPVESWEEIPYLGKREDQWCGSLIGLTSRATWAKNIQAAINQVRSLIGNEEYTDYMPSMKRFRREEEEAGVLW
Sequence of Cysteine protease ATG4B (Q9Y4P1 whole entry): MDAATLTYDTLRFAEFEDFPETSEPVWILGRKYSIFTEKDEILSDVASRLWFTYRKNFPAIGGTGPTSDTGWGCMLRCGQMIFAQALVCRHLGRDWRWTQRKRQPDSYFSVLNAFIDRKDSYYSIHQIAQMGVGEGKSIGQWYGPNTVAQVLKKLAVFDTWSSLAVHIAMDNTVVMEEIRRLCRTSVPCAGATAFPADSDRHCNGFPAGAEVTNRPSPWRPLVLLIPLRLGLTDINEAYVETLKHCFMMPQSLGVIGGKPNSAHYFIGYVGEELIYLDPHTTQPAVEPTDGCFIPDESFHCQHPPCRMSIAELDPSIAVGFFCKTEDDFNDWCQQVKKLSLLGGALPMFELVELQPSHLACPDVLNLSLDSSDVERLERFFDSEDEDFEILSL

On to `O=C1Nc2ccc(F)cc2C12Nc1ccccc1-c1nnc(SCc3ccccc3Cl)nc1O2` (stereo unspecified), for which the IC50 is > 100 µM (active) at Genome polyprotein and 25.5 µM (not active) in assay [1]. Moreover, the EC50 on Beta-galactosidase was > 40 µM (inactive).
Consider `Cc1cc(C(=O)OCC(=O)c2cccc([N+](=O)[O-])c2)c2ccccc2n1`, for which the IC50 in assay [1] was 17.4 µM (active). The EC50 on Beta-galactosidase was > 40 µM (inactive).
In the case of `O=C(Nc1ncccc1O)c1ccc(C(=O)c2ccccc2)cc1`, the EC50 in assay [2] was > 67.5 µM (inactive); with H4, 23 µM (active); in “cells [3]” it was 48.2 µM (active); in “cells [5]”, 72.7 µM (active); in assay [6] it was 11.4 µM (active); in assay [7], 16.4 µM (active). Also, the IC50 in assay [4] is > 67.6 µM (inactive); in the assay on HEK293, 1.04 µM (active).
Take `CN(CC(=O)N1CCN(c2ncccn2)CC1)S(=O)(=O)c1ccc(Cl)cc1`: in assay [8], the EC50 was 0.117 µM (active).
Take `COc1cccc(NC(=O)c2csc3c2CCCC3)c1`: the CC50 in assay [9] was 32.5 µM (active). Further, the IC50 was 18.9 µM (active) in [10], 19.2 µM (active) on Caspase-3, 5.17 µM (active) in [11] and 15.5 µM (active) in assay [12]. Also, the AC50 in the assay with HeLa was 49.7 µM (active).
With `CC(=O)Nc1ccc(-c2cn3c(n2)SCC3)cc1`, the EC50 was 10.9 µM (inactive) in [8] and > 195 µM (not active) in assay [13].
For `CCOC(=O)C1CCCN(C(=O)c2ccc3c(=O)n(Cc4ccccc4OC)c(=S)[nH]c3c2)C1` (stereo unspecified), the IC50 is 19.6 µM (active) on Cysteine protease ATG4B and 9.33 µM (active) on Phospholipase A2.
For `Cc1ccc2[nH]c(/C(C#N)=C/c3ccccc3C(=O)O)nc2c1`, the IC50 (in assay [4]; with HEK293) was > 67.5 µM (inactive) in each case.
